Entries after “also recorded” stand apart in the source; their conditions may differ. Read-outs that look alike come from different tables or passages of the source. Square brackets hold non-standard residues; d marks the D form. Dmt = Cc1cc(O)cc(C)c1C[C@H](N)C(=O)O; dNMeA = CN[C@H](C)C(=O)O; Sar = CNCC(=O)O
What was measured:
male C57Bl6 mice [1] = assay: hot water tail-flick test, tolerance after daily i.v. administration for 5 days; type: in vivo, mouse; conditions: for tolerance development after repetitive administration: daily for 5 days, i.v. (morphine i.p.), measured on day 5; for %MPE: ± SEM of 7-10 animals
Protocol: (§1) Nociceptive responses to thermally-induced pain were assessed by the hot water tail-flick test using male C57Bl6 mice. Animals (weighing 25-28 g) were maintained on a normal light-dark cycle and testing occurred during the light cycle. Mice were injected intravenously (i.v.) with the examined drug, dissolved in saline, at different doses. For the verification of drug-induced antinociceptive tolerance, the investigated compounds were administered (i.v.) once per day for 5 days (2 and 4 mg/kg for SBCHM01 and 4 mg/kg for both AN81 and BVD03) and the analgesic effect was measured on the first and the fifth day of the experiment. In each case (both acute and chronic treatment) the effect was measured over a minimum time period of 120 minutes. The antinociceptive effect was measured in triplicate at the following time points post-injection: 5, 15, 30, 60, 120 min (and 180 min for SBCHM01; due to the strong and long-lasting analgesic effect produced by AN81 (Figure 2C), there was no possibility to prolong the experiment, which - if prolonged - could in consequence cause major damage to the animal's tail, thus giving spurious nociceptive responses). Responses to thermal hot stimulus were assessed by the latency with which the mouse removed its tail from 55°C water. A cut-off time of 10 s was used in order to prevent tissue damage.
(§2) In order to compare the antinociceptive effect induced by the examined drugs, morphine was used as a standard reference.
(§3) Data are presented as means ± standard errors of the mean (SEM). All of the calculations and statistical analysis were performed using Prism 5.0 (Graph Pad Software, San Diego, CA, USA). The nociceptive scores were analyzed using a two-way Anova with Bonferroni's post hoc test. The p value (the value of probability) as well as inferential statistics - F test, which include information about the obtained magnitude or value of the test statistic and degrees of freedom, are represented.

male CD1 mice = assay: radiant heat tail-flick test after s.c. administration; type: in vivo, mouse
Protocol: as §2
In order to determine the duration of drug activity, s.c. drug administration into male CD1 mice (27-33 g; Charles River Laboratories, Sulzfeld, Germany) was performed. In addition to a thermal nociceptive stimulus, the alternative light beam-based tail-flick assay was performed using an UB 37360 Ugo Basile analgesiometer (Ugo Basile s.r.l., Varese, Italy). The reaction time required by the mouse to remove its tail due to the radiant heat was measured and defined as the tail-flick latency. A cut-off time of 10 s was used in order to minimize tissue damage. Tail-flick latencies were measured before (baseline) and after drug s.c. administration (30 min, 1 h, 2 h, 3 h, 4 h, 5 h, 6 h and 7 h), the antinociceptive effect was scored as a percentage of the maximal possible effect (% MPE), according to formula presented above. Drugs were dissolved in sterile physiological saline (0.9%) and were administered s.c. in a volume of 10 μl per 1 g body weight. The animal procedures were approved by the Austrian Ethical Committee on Animal Care and Use in line with international laws and policies.
as §3

KOR = conditions: cited from earlier work
Text: Table 1 In vitro functional activities and affinities of opioid- and opioid-NK1 ligands | column: KOR Ki (nM)^e, f

male C57Bl6 mice [2] = assay: hot water tail-flick test, acute antinociception after i.v. administration; type: in vivo, mouse; conditions: for analgesic effect compared with morphine: morphine 4 mg/kg i.p.
Protocol: as §1, §2, §3

MOR [3] = target: MOR; design: method as in PMID 21413804; conditions: [^3H]DAMGO, rat brain membrane; cited from earlier work
DOR [4] = target: DOR; design: method as in PMID 21413804; conditions: [^3H]DSLET, rat brain membrane; cited from earlier work
MOR/DOR = conditions: cited from earlier work
Text: (§4) The structure differs from BVD03 only in the amide nitrogen N-methyl group and side chain of the second residue in the peptide sequence (Figure 1). When an activity comparison is made between the two ...

DOR [5] = system: DOR; design: method as in PMID 21413804; conditions: MVD tissue bioassay; means of 3-6 experiments ± SEM; cited from earlier work
MOR [6] = system: MOR; design: method as in PMID 21413804; conditions: GPI tissue bioassay; means of 3-6 experiments ± SEM; cited from earlier work
[7] = cited from earlier work
Text: as §4

MOR [8] = conditions: [^3H]diprenorphine, HEK293 cells stably expressing MOR; cited from earlier work
Text: (§5) Table 1 In vitro functional activities and affinities of opioid- and opioid-NK1 ligands | column: MOR Ki (nM)^e, f || The potent antinociceptive effects of the investigated structures after peripheral administration indicate that all four peptidic compounds are able to cross the BBB. […] The observed effects are in agreement with earlier in vitro binding data obtained for these peptides (BVD02 ...

DOR [9] = assay: DOR binding, displacement of [^3H]diprenorphine in HEK293 cells; conditions: BVD03 in comparison to BVD02, Ki
MOR [10] = conditions: forskolin-stimulated cAMP accumulation, agonist; cited from earlier work
Text: as §5, with “EC50 (nM)^c, d” for “Ki (nM)^e, f”

DOR [11] = conditions: forskolin-stimulated cAMP accumulation, agonist; cited from earlier work
Text: as §5, with “DOR EC50 (nM)^c, d” for “MOR Ki (nM)^e, f”

DOR [12] = conditions: [^3H]diprenorphine, HEK293 cells stably expressing DOR; cited from earlier work
Text: as §5, with “DOR” for “MOR”

MOR [13] = assay: MOR binding, displacement of [^3H]diprenorphine in HEK293 cells; conditions: BVD03 in comparison to BVD02, Ki
MOR [14] = assay: forskolin-stimulated cAMP accumulation, MOR agonism; type: cell-based; conditions: BVD03 in comparison to BVD02, EC50 cAMP
[15] = system: male, Sprague-Dawley rats; conditions: TY005, rats; i.t. administration, paw withdrawal test; cited from earlier work
Text: Recently, Vanderah and coworkers reported the detailed in vivo evaluation of H-Tyr-D-Ala-Gly-Phe-Met-Pro-Leu-Trp-O-3',5'-Bn(CF3)2 (TY005) in several animal assays to define the role of this compound in thermal and tactile stimuli in uninjured, sham- and nerve-injured male, Sprague-Dawley rats. They observed that this compound was able to exert the desired dual activity in vivo. […] This is in contrast to the current study, where the hot water tail-flick assay served as a model for acute pain and in which the drug was injected intravenously. […] For a general clinical applicability, an important goal in pain research consists of the discovery and development of improved analgesic drugs which could be admi ...

[16] = i.v., 1 mg/kg, 30 min, ± SEM of 6-10 mice, p > 0.05 vs morphine
[17] = [^3H]diprenorphine, HEK293 cells stably expressing KOR
[18] = i.v., 0.5 mg/kg, 60 min, ± SEM of 6-10 mice, p > 0.05 vs morphine

CN1CC[C@]23c4c5ccc(O)c4O[C@H]2[C@@H](O)C=C[C@H]3[C@H]1C5 [morphine, reference compound]
tolerance development after repetitive administration (male C57Bl6 mice [1]): mice had developed opioid-induced tolerance | potency at 180 min (male C57Bl6 mice [1]; day 1, SBCHM01 2 mg/kg i.v., morphine 4 mg/kg i.p.): decrease in potency is clearly visible | duration of analgesia (male CD1 mice; morphine s.c., more elevated doses relative to AN81): activity drops rapidly over time; also recorded: lost almost all activity over a time period of 2 hours

H-Dmt-D-Arg-Aba-Gly-NH2 [AN81]
Ki (KOR; [^3H]U69,593, guinea pig brain membrane): 0.118 ± 0.012 µM | overall analgesic effect after systemic administration (male C57Bl6 mice [2]; compared among the peptides of the study): strongest analgesic effect | analgesic effect compared with morphine (male C57Bl6 mice [2]; i.v., 0.1 mg/kg, 15 min and 120 min): significantly lower analgesic effect | %MPE (male C57Bl6 mice [2]; i.v., 0.1 mg/kg, 2 h, ± SEM of 6-10 mice, p < 0.05 vs morphine): 61.2 ± 6.45% | %MPE (male C57Bl6 mice [2]; [16]): 95 ± 2.89% | %MPE (male C57Bl6 mice [2]; i.v., 4 mg/kg, 30 min, 6-10 mice, p > 0.05 vs morphine): 100% | analgesic effect compared with morphine (male C57Bl6 mice [2]; i.v., 4, 1 and 0.5 mg/kg, all time points, p > 0.05): no difference in the analgesic effect | tolerance compared to morphine (male C57Bl6 mice [1]; 5 days repetitive administration): markedly lower | tolerance development after repetitive administration (male C57Bl6 mice [1]): leads to the development of tolerance; also recorded: partial preservation of analgesia observed after repetitive administration; also recorded: appeared to still induce the development of tolerance | %MPE (male C57Bl6 mice [1]; day 5, i.v., 4 mg/kg daily, last time point (120 min), p < 0.001): 15.83% ± 4.40 | Ki (MOR [3]): 0.00015 ± 2e-05 µM | Ki (DOR [4]): 0.0006 ± 7e-05 µM | in vitro agonist profile (MOR/DOR): superagonist profile; also recorded: full MOR/DOR agonist with subnanomolar affinity and tissue bioactivity | EC50 (DOR [5]): 0.00042 ± 2e-05 µM | duration of antinociception (male CD1 mice; abstract: very low doses (0.1 mg/kg)): up to 7 hours | %MPE (male CD1 mice; s.c., 1 mg/kg, 7 h, ± SEM of 5-6 mice): 38.4 ± 7.8% | time of peak antinociception (male CD1 mice; s.c., 0.2, 0.5 and 1 mg/kg, 5-6 mice): 1 h | duration of analgesia (male CD1 mice; s.c., 1, 0.5 and 0.2 mg/kg): up to 7 hours | EC50 (MOR [6]): 0.00032 ± 4e-05 µM

H-Dmt-D-Arg-Phe-Lys-NH2 [Dmt^1-DALDA]
opioid analgesic potency [7]: potent opioid analgesic

H-Dmt-NMe-D-Ala-Aba-Gly-NH2 [BVD03]
Ki (MOR [8]): 0.015 ± 0.002 µM | Ki (KOR; [17]): > 1000 µM | %MPE (male C57Bl6 mice [2]; i.v., 0.25 mg/kg (similar at 4 and 0.5 mg/kg), 15 min): 35-40% | %MPE (male C57Bl6 mice [2]; i.v., 0.25 mg/kg, 2 h, maximum level, ± SEM of 6-10 mice): 57.48 ± 17.57% | %MPE (male C57Bl6 mice [2]; [18]): 88.41 ± 7.15% | %MPE (male C57Bl6 mice [2]; i.v., 0.5 mg/kg, 120 min, ± SEM of 6-10 mice, p > 0.05 vs morphine): 84.29 ± 6.46% | %MPE (male C57Bl6 mice [2]; i.v., 1 mg/kg, 60 min, ± SEM of 6-10 mice, p > 0.05 vs morphine): 89.21 ± 5.22% | %MPE (male C57Bl6 mice [2]; i.v., 1 mg/kg, 120 min, ± SEM of 6-10 mice, p > 0.05 vs morphine): 86.69 ± 5.52% | %MPE (male C57Bl6 mice [2]; i.v., 4 mg/kg, 60 min, ± SEM of 6-10 mice, p > 0.05 vs morphine): 68.78 ± 7.18% | %MPE (male C57Bl6 mice [2]; i.v., 4 mg/kg, 120 min, ± SEM, vs morphine: BVD03 p < 0.05, SBCHM01 p > 0.05): 50.06 ± 6.84% | antinociception after 2 hours (male C57Bl6 mice [2]; i.v., all doses except 0.25 mg/kg): drop in antinociception after 2 hours | fold increase in DOR affinity vs BVD02 (DOR [9]): 26 fold | EC50 (MOR [10]): 0.00174 ± 0.00034 nM | tolerance development after repetitive administration (male C57Bl6 mice [1]): leads to the development of tolerance | %MPE (male C57Bl6 mice [1]; day 1, i.v., 4 mg/kg, 1 h): 68.78 ± 7.18% | difference from morphine on first day (male C57Bl6 mice [1]; day 1, i.v., 4 mg/kg, 7-10 animals): significant differences (**p < 0.01) when compared to morphine | %MPE (male C57Bl6 mice [1]; day 5, i.v., 4 mg/kg daily, 60 min): 18.14 ± 6.84% | EC50 (DOR [11]): 0.016 ± 0.009 nM | Ki (DOR [12]): 0.005 ± 0.003 µM | factor of superior MOR binding vs BVD02 (MOR [13]): 4 | factor of superior MOR potency vs BVD02 (MOR [14]): 45

H-Tyr-D-Ala-Gly-Phe-Met-Pro-Leu-Trp-O-3',5'-Bn(CF3)2 [TY005, hybrid opioid-NK1 octapeptide ligand]
antihyperalgesic tolerance [15]: development of antihyperalgesic tolerance could be suppressed; also recorded: inhibition of antihyperalgesic tolerance; also recorded: able to attenuate tolerance development

H-[Dmt][dNMeA]F[Sar]-NH2 [BVD02, opioid tetrapeptide, "ring opened" analogue]
Ki (MOR [8]): 0.06 ± 0.003 µM | Ki (KOR; [17]): > 1000 µM | %MPE (male C57Bl6 mice [2]; [18]): 56.77 ± 13.57% | %MPE (male C57Bl6 mice [2]; [16]): 74.77 ± 13.63% | %MPE (male C57Bl6 mice [2]; i.v., 5 mg/kg, 15 min post-injection, 6-10 mice, unchanged within the next hour): 100% | %MPE (male C57Bl6 mice [2]; i.v., 5 mg/kg, 2 h, ± SEM of 6-10 mice, p > 0.05): 96 ± 4% | antinociceptive activity at 120 min compared to morphine (male C57Bl6 mice [2]; i.v., 1 and 0.5 mg/kg, 120 min, p < 0.001 vs morphine): dramatic reduction of activity | EC50 (MOR [10]): 0.079 ± 0.0065 nM | EC50 (DOR [11]): 4400 ± 500 nM | Ki (DOR [12]): 0.13 ± 0.005 µM
